Results reported in patent publication US11730770B2, “Methods for making and using sinoatrial node-like pacemaker cardiomyocytes and ventricular-like cardiomyocytes” (UNIVERSITY HEALTH NETWORK, priority 2015, dated 2023).

How the values were obtained:
Type in all cases: cell-based, human
[1] = test system: pacemaker funny current (If); test: Patch clamp, pacemaker funny current density; conditions: 2 mM Cesium (Cs+) vs Tyrode's solution
Protocol: FIG. 9. A, Current-voltage relationship for pacemaker funny current density (If) in SANLCM and VLCM. Inset: voltage protocol, from a holding potential of −40 mV currents were elicited by 3 s voltage steps of −10 mV down to −120 mV. Current densities were measured by subtraction of the instantaneous current (t=0) from the current at the end of the 3 sec voltage step. B,C Original pacemaker funny current traces at different membrane potentials in Tyrode's solution (B) and blocked by the application of 2 mM Cesium (Cs^+) (C). Inset: voltage protocol, from a holding potential of −40 mV currents were elicited by 3 s voltage steps of −10 mV down to −120 mV. […] Current densities were measured as peak inward currents. […]
Action potentials and membrane currents were measured with standard current- and voltage-clamp techniques using axopatch amplifier. […] Spontaneous action potentials, funny current (If) and inward rectifier potassium currents ([…]) were recorded at 37° C. using the perforated patch method (nystatin)^14 with the following bath solution (mM): NaCl 124. […] Sodium currents (IN) were recorded at 25° C. using the whole cell ruptured patch method in calcium free bath solution containing low Na^+ to reduce current amplitude for better voltage control (mM): NaCl 30, TEA-Cl 115, CaCb20.01, MgCl2 1, and glucose 5, Hepes 10 (pH 7.4, adjusted with NaOH). […]

[2] = test system: HES-2 embryonic stem cell line; test: Flow cytometry of day 20 HES2 cultures, intracellular NKX2-5 and cTNT staining
Protocol: For the generation of SANLCM cultures free of NKX2-5′ cardiomyocytes mesoderm was induced with the 3B/2A condition (3 ng/ml BMP4, 2 ng/ml ACTA) at day 1 of differentiation. […]
For the dissociation of day 3-day 12 EBs TrypLE was used. Day 12-30 EBs were incubated in HANKs buffer containing 1 mg/ml Collagenes type 2 (Worthington) with gentle shaking over night at room temperature, prior to TypLE dissociation. Cells were stained at a concentration of 5×10^6 cells/ml with anti-PDGFRα-PE (1:20) anti-KDR-APC (1:10), (R&D Systems), anti-SIRPA-PeCy (clone SE5A5, 1:1000, Biolegend), anti-CD90-APC (BD), anti-cardiac isoform of cTNT (clone 13-11; 1:2000, Thermo Fischer), rabbit anti-human NKX2-5 (1:800, Cell Signaling Technology), goat anti-mouse IgG APC (1:250, BD), goat anti-mouse IgG PE (1:200, Jackson ImmunoResearch), donkey anti-rabbit IgG A647 Life Technologies). For cell-surface markers staining was carried out in PBS containing 5% FCS. For intra-cellular staining cells were fixed for 10 min at 4° C. with 4% PFA and stained in PBS containing 5% FCS and 0.5% saponin (cTNT) or 0.3% TritonX (NKX2-5). Stained cells were analyzed using the LSR II Flow cytometer (BD). For cell sorting the cells were kept in IMDM containing 5% FCS and sorted at a concentration of 10^6 cell/ml using MoFlo (BD) and Influx (BD) sorter. […] Data were analyzed using FlowJo software (Tree Star). […]

[3] = test system: HES3 NKX2-5:GFP reporter line; test: Flow cytometry of day 20 differentiation cultures for NKX2-5 and cTNT
Protocol: Human pluripotent stem cell lines (Hes3 NKX2-5:GFP)^10 H7 (HESC line approved by NIH registration number 0061^32 and MSC-IPS1^11 were cultured as described^12. For differentiation into the cardiac lineage the established protocol was used with the following modifications (FIG. 1A). 80% confluent hPSCs cultures were dissociated into single cells, suspended in StemPro-34 Media containing 1 ng/ml BMP4 and 10 μM ROCK inhibitor and incubated for 18 h on an orbital shaker to generate embryoid bodies (EBs). The next day (day 1 of differentiation) the EBs were transferred to mesoderm induction media: StemPro-34 containing 10 ng/ml BMP4, 6 ng/ml ActivinA, 5 ng/ml bFGF. At day 3 of differentiation the EBs were washed once using IMDM and suspended in cardiac induction media: StemPro-34 containing 0.5 μM IWP2, 10 ng/ml VEGF, and optionally 5.4 μM SB-431542 (SB, Activin/Nodal/TGFβ inhibitor). At day 5 of differentiation EBs were switched to basic media: Stempro containing 5 ng/ml VEGF. Media was supplemented with VEGF until day 12 of differentiation and changed every 4 days. All cytokines were purchased from R&D systems if not indicated otherwise. EBs were cultured under low oxygen conditions 5% CO2, 5% O2, 90% N2 until day 12 and at 5% CO2, normal air conditions for the rest of the culture period.
EBs were dissociated into single cells at the mesoderm stage (day 3 of differentiation) using TrypLE (Life Technologies) with the rational to ensure efficient cytokine supply to each cell. Cells were placed into 96 well low cluster plates at 80,000 cells/well with the indicated cytokines and 5 μM ROCK inhibitor for re-aggregation into EBs (FIG. 2A). At day 5 of differentiation EBs were transferred to 24 well low cluster plates and continued to be cultured in basic media as described above.
For efficient specification of SANLCM pacemaker, mesoderm was induced with the 3B/2A condition (3 ng/ml BMP4, 2 ng/ml ACTA) at day 1 of differentiation. At day 3 EBs were dissociated as described above and treated with 2.5 ng/ml BMP4 and 0.5 μM RA in addition to standard cardiac induction media.
For the generation of SANLCM cultures free of NKX2-5′ cardiomyocytes mesoderm was induced with the 3B/2A condition (3 ng/ml BMP4, 2 ng/ml ACTA) at day 1 of differentiation. For this protocol EBs were kept intact and treated at day 3 with 2.5 ng/ml BMP4, 0.5 μM RA and 960 nM FGF inhibitor (PD 173074, Tocris) at day 3 or day 4 in addition to standard cardiac induction media.
For the dissociation of day 3-day 12 EBs TrypLE was used. Day 12-30 EBs were incubated in HANKs buffer containing 1 mg/ml Collagenes type 2 (Worthington) with gentle shaking over night at room temperature, prior to TypLE dissociation. Cells were stained at a concentration of 5×10^6 cells/ml with anti-PDGFRα-PE (1:20) anti-KDR-APC (1:10), (R&D Systems), anti-SIRPA-PeCy (clone SE5A5, 1:1000, Biolegend), anti-CD90-APC (BD), anti-cardiac isoform of cTNT (clone 13-11; 1:2000, Thermo Fischer), rabbit anti-human NKX2-5 (1:800, Cell Signaling Technology), goat anti-mouse IgG APC (1:250, BD), goat anti-mouse IgG PE (1:200, Jackson ImmunoResearch), donkey anti-rabbit IgG A647 Life Technologies). For cell-surface markers staining was carried out in PBS containing 5% FCS. For intra-cellular staining cells were fixed for 10 min at 4° C. with 4% PFA and stained in PBS containing 5% FCS and 0.5% saponin (cTNT) or 0.3% TritonX (NKX2-5). Stained cells were analyzed using the LSR II Flow cytometer (BD). For cell sorting the cells were kept in IMDM containing 5% FCS and sorted at a concentration of 10^6 cell/ml using MoFlo (BD) and Influx (BD) sorter. For sorting of PFA-fixed cells for subsequent RNA isolation the staining buffers and PBS for cell collection were supplemented with 5 mM DTT and 100 U/ml RNaseOUT (Life Technologies). All buffer components were RNAse free and samples were strictly kept on ice and sorted within 3 h from PFA-fixation. Data were analyzed using FlowJo software (Tree Star).

[4] = test system: SAN pacemaker marker, ventricular marker and cardiac ion channels; test: Q-PCR analysis of marker gene expression; conditions: BMP4 day 3-5, 2.5 ng/ml vs untreated control, day 4 to 12
Protocol: Total RNA was isolated using the RNAqueous-micro Kit (Ambion) followed by a DNase digestion step (Ambion). For RNA isolation from PFA-fixed cells the RecoverAll Kit (Ambion) was used. 500 ng to 1 μg of RNA was reverse transcribed into cDNA using random hexamers and Oligo(dT) primers with Superscript III Reverse Transcriptase (life technologies). QPCRs were performed on the EP RealPlex MasterCycler (Eppendorf) using the QuntiFast SYBR Green PCR Kit (Qiagen) according to the manufacturer's instructions. A 10-fold dilution series of human genomic DNA standards ranging from 25 ng/μl to […] was used to evaluate the efficiency of the PCR and calculate the copy number of each gene relative to the house keeping gene TBP as described previously^13. Human fetal heart tissue gestation stage 17 was purchased from Novogenix Laboratories. After dissecting ventricular, sinoatrial node and atrioventricular node tissue RNA was isolated using the Trizol method (Life Technologies) and treated with DNase (Ambion).

TBX18 = test: Quantification of TBX18+ cells from immunostaining; conditions: BMP4 2.5 ng/ml day 3-5
Protocol: Cells were fixed with 4% PFA for 10 min at 4° C. and permeabilized using 0.3% Triton X, 200 mM Glycerin for 20 min at RT. Samples were blocked for 30 min at room temperature in blocking buffer (BB): 10% donkey serum, 2% BSA, 0.1% Triton X. The following primary antibodies were incubated in BB over night at 4° C.: anti-cardiac isoform of cTNT (clone 13-11; 1:100, Thermo Fischer), rabbit anti-human MLC2v (1:100), rabbit anti-human SHOX2 (1:200), (Abcam), rabbit anti-human TBX3 (1:100), goat anti-human Tbx18 (1:50), (Santa Cruz). Respective secondary antibodies were incubated for 30 min at RT: donkey anti-mouse IgG A647 (1:400), donkey anti-rabbit IgG A467 (1:400), (Life Technologies), goat anti-mouse IgG Cy3 (1:400), donkey anti-rabbit IgG Cy3 (1:800), donkey anti-goat IgG Cy3 (1:800), (Jackson ImmunoResearch). DAPI was used to counterstain cell nuclei and slides were mounted using Fluorescent Mounting Medium (Dako). The Olympus FluoView 1000 Laser Scanning Confocal Microscope and the FV10-ASW software were used for imaging.
For the quantification of DAPI and TBX18 positive cell nuclei the IMAGE J software plugin ICTN was used. For each condition three random taken pictures (FIG. 3F) of three independent experiments were analyzed.

## [Cs] [Cesium]
[1]
  effect on pacemaker funny current traces: blocked

## CCN(CC)CCCCNc1ncc2cc(-c3cc(OC)cc(OC)c3)c(NC(=O)NC(C)(C)C)nc2n1 [PD 173074]
[2]; 240 nM FGFi day 3-5, vs 43% at endogenous bFGF levels
  NKX2-5+ myocytes in day 20 cultures: 5%
[2]; BMP 2.5 ng/ml, RA 0.5 μM, 240 nM FGFi day 3-5
  NKX2-5-cTNT+ SANLCMs in day 20 cultures: up to 36%
[3]; BMP+RA plus FGF inhibitor 240-960 nM
  NKX2-5+ cardiomyocytes in day 20 cultures: 51%
[3]; BMP+RA plus FGF inhibitor from day 4-6 (480 nM)
  NKX2-5-cTNT+ SANLCM in day 20 cultures: 48±3%
[3]; FGF inhibitor applied from day 5 onwards
  block in development of NKX2-5+ cardiomyocytes: no effect

## CC1=C(/C=C/C(C)=C/C=C/C(C)=C/C(=O)O)C(C)(C)CCC1 [RA, retinoic acid]
[3]; RA 500 nM added at later times (days 3 to 12)
  generation of total cardiomyocytes and SANLCM frequency: no effect

## BMP4: Bone Morphogenetic Protein 4
[4]
  TBX18 expression: significantly up-regulated
TBX18
  number of TBX18+ cells at day 6: 38±2%
[3]; BMP4 1.25-5 ng/ml day 3-5, mesoderm induced with 3B/2A
  proportion of SANLCMs: 35±1%
[3]; BMP4 1.25-5 ng/ml day 3-5, mesoderm induced with 5B/4A
  proportion of SANLCMs: 21±1%
[3]; BMP4 1.25-5 ng/ml day 3-5, mesoderm induced with 10B/6A
  proportion of SANLCMs: 15±2%
[3]; high levels of BMP4 (10-20 ng/ml) between day 3-5
  total cardiomyocytes: significant reduction

## bFGF: fibroblast growth factor FGF2
[3]; BMP+RA plus bFGF (20 ng/ml, day 4-6)
  NKX2-5-cTNT+ SANLCM population in day 20 cultures: 12±1%
